In test [1] the test system is Rattus norvegicus. Briefly: Cardioprotective activity against ischemic Sprague-Dawley rat heart assessed as serum creatine kinase level at 1 mg/kg, iv treated 5 mins before left anterior descending coronary artery occlusion measured after 2 hrs of reperfusion by Evans staining. Type of test: functional.
Test [2] addresses Sodium/hydrogen exchanger 1 (Rattus norvegicus, UniProt P26431). Briefly: Inhibition of NHE1 in Sprague-Dawley rat platelet-rich plasma by optical swelling assay.
The test system of test [3] is Rattus norvegicus. Briefly: Cardioprotective activity against ischemic Sprague-Dawley rat heart assessed as reduction in infarct size at 1 mg/kg, iv treated 5 mins before left anterior descending coronary artery occlusion measured after 2 hrs of reperfusion by Evans staining. Format: functional. Details: scale not given: the % may be the effect or the level left.
Test [4] has as its system Rattus norvegicus. Briefly: Cardioprotective activity against ischemic Sprague-Dawley rat heart assessed as serum creatine kinase level at 0.5 mg/kg, iv treated 5 mins before left anterior descending coronary artery occlusion measured after 2 hrs of reperfusion by Evans staining. Format: functional.
The subject of test [5] is Rattus norvegicus. Kind of test: Cardioprotective activity against ischemic Sprague-Dawley rat heart assessed as reduction in infarct size at 0.5 mg/kg, iv treated 5 mins before left anterior descending coronary artery occlusion measured after 2 hrs of reperfusion by Evans staining. Format: functional. Details: scale not given: the % may be the effect or the level left.

Test [6] has as its system Rattus norvegicus. Kind of test: Cardioprotective activity against ischemic Sprague-Dawley rat heart assessed as reduction in infarct size at 0.25 mg/kg, iv treated 5 mins before left anterior descending coronary artery occlusion measured after 2 hrs of reperfusion by Evans staining. Type of test: functional. Details: scale not given: the % may be the effect or the level left.

For test [7], the target named is Sodium/hydrogen exchanger 1 (Rattus norvegicus) (UniProt P26431). Briefly: Ratio of cariporide IC50 to compound IC50 for NHE1 in Sprague-Dawley rat platelet-rich plasma by optical swelling assay.
The subject of test [8] is Rattus norvegicus. Briefly: Cardioprotective activity against ischemic Sprague-Dawley rat heart assessed as serum creatine kinase level at 0.25 mg/kg, iv treated 5 mins before left anterior descending coronary artery occlusion measured after 2 hrs of reperfusion by Evans staining. Type of test: functional.

The source of these data is ChEMBL document CHEMBL1153623, “Synthesis and bioactivity of substituted indan-1-ylideneaminoguanidine derivatives” (Eur J Med Chem, 2009).

Sequence of Sodium/hydrogen exchanger 1 (P26431 whole entry, the tested form may be a part): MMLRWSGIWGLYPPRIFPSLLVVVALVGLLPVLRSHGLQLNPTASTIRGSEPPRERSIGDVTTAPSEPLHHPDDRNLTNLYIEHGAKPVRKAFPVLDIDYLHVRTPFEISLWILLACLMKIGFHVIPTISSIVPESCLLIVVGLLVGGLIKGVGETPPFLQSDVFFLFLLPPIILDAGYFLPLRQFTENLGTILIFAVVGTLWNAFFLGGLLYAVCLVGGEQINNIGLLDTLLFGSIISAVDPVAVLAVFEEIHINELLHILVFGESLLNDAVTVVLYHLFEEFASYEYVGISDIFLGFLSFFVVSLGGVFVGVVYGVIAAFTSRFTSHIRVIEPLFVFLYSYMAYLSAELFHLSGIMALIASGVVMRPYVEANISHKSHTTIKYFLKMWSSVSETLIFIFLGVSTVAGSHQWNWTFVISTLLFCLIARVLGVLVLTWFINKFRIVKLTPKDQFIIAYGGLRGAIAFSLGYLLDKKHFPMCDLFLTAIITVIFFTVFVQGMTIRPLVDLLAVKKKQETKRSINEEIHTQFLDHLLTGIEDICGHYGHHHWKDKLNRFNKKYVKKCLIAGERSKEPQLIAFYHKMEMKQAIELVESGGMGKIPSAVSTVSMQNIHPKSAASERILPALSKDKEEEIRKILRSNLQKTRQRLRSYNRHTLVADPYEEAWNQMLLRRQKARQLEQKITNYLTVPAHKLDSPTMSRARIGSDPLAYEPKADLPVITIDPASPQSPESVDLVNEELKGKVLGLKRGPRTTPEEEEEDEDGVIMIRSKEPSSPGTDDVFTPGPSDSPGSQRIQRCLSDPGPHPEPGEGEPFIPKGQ
Sequence of Sodium/hydrogen exchanger 1 (Rattus norvegicus) (P26431 whole entry, the tested form may be a part): as above

As usually defined, the IC50 is the concentration needed to halve the response being measured. Take `Cl.Cl.NC(N)=N/N=C1\c2ccccc2CC1Sc1nc2ccccc2[nH]1` (configuration not stated): the Activity was 3.02 U/ml in test [1] and 42.89% in test [3]. Also, in test [2], the IC50 came out at 0.00173 µM. Regarding `NC(N)=N/N=C1\c2cc(Cl)cc(Cl)c2CC1Sc1nc2ccccc2[nH]1` (configuration not stated), in test [2], the IC50 stood at 0.654 µM. Still for that read-out and setting: then `NC(N)=N/N=C1\c2cc(Cl)ccc2CC1Sc1nc2ccccc2[nH]1` (configuration not stated), with 0.326 µM. Same read-out and setting: then `COc1cc2c(c(OC)c1OC)CC(Sc1nc3ccccc3[nH]1)/C2=N/N=C(N)N` (configuration not stated), with 0.0108 µM; and `COc1cc2c(cc1OC)/C(=N\N=C(N)N)C(Sc1nc3ccccc3s1)C2` (configuration not stated), with 0.00244 µM.

In test [2], `NC(N)=N/N=C1\c2ccc(Cl)cc2CC1Sc1nc2ccccc2s1` (configuration not stated) showed an IC50 of 0.00234 µM.

`COc1cc2c(cc1OC)/C(=N\N=C(N)N)C(Sc1nc3ccccc3[nH]1)C2` (configuration not stated): in test [2], the IC50 is 0.0112 µM.

The compound `NC(N)=N/N=C1\c2cccc(Cl)c2CC1Sc1nc2ccccc2s1` (configuration not stated) registered an IC50 in test [2] of 0.0203 µM. Compound `COc1ccc2[nH]c(SC3Cc4ccccc4/C3=N\N=C(N)N)nc2c1` (configuration not stated) yielded an IC50 in test [2] of 0.0168 µM. On the same count and under the same terms, then `NC(N)=N/N=C1\c2ccc(Cl)cc2CC1Sc1nc2ccccc2[nH]1` (configuration not stated), with 0.0214 µM. The same measure, in the same setting: the result for `NC(N)=N/N=C1\c2cc(Cl)ccc2CC1Sc1nc2ccccc2s1` (configuration not stated) reads 0.0346 µM. In the case of `COc1ccc2[nH]c(SC3Cc4ccc(F)cc4/C3=N\N=C(N)N)nc2c1` (configuration not stated), the IC50 in test [2] was determined as 0.0255 µM.

In test [2], `COc1cc2c(c(OC)c1OC)CC(Sc1nc3ccccc3s1)/C2=N/N=C(N)N` (configuration not stated) yielded an IC50 of 0.00198 µM. Take `CC(C)c1ccc(C(=O)N=C(N)N)cc1S(C)(=O)=O` [CARIPORIDE]: the Activity in test [1] is reported as 3.53 U/ml; in test [3], 45.74%. In test [2], `COc1cc2c(c(OC)c1OC)CC(Sc1nc3cc([N+](=O)[O-])ccc3[nH]1)/C2=N/N=C(N)N` (configuration not stated) showed an IC50 of 0.0315 µM. Same read-out and setting: the result for `NC(N)=N/N=C1\c2ccc([N+](=O)[O-])cc2CC1Sc1nc2ccccc2[nH]1` (configuration not stated) reads 0.00117 µM. As to `Cl.NC(N)=N/N=C1\c2ccccc2CC1Sc1nc2cc([N+](=O)[O-])ccc2[nH]1` (configuration not stated), the Activity in test [1] turned out to be 4.12 U/ml; in test [3], 49.18%. This compound also had an IC50 in test [2] of 0.00174 µM.

For the compound `COc1ccc2c(c1)/C(=N\N=C(N)N)C(Sc1nc3ccccc3s1)C2.Cl` (configuration not stated), the Activity is given as 3.38 U/ml in test [1] and 43.24% in test [3]. In test [2], this compound registered an IC50 of 0.0019 µM. In test [2], `NC(N)=N/N=C1\c2ccc(Cl)cc2CC1Sc1nc2cc([N+](=O)[O-])ccc2[nH]1` (configuration not stated) gave an IC50 of 0.0122 µM.

The compound `NC(N)=N/N=C1\c2cc(F)ccc2CC1Sc1nc2cc([N+](=O)[O-])ccc2[nH]1` (configuration not stated) yielded an IC50 in test [2] of 0.038 µM.

On to `Br.COc1ccc2[nH]c(SC3Cc4cc(Cl)ccc4/C3=N\N=C(N)N)nc2c1.Cl` (configuration not stated), for which the Activity is given as 3.34 U/ml in test [4]; 40.87% in test [5]; 2.82 U/ml in test [1]; 42.27% in test [6]; 3.72 U/ml in test [8]; 36.16% in test [3]. This compound also had an IC50 in test [2] of 0.00094 µM. Further, in test [7], the Ratio IC50 was 69. In test [2], `NC(N)=N/N=C1\c2cc(Cl)ccc2CC1Sc1nc2cc([N+](=O)[O-])ccc2[nH]1` (configuration not stated) displayed an IC50 of 0.0389 µM. Still for that read-out and setting: the result for `NC(N)=N/N=C1\c2cc(F)ccc2CC1Sc1nc2ccccc2s1` (configuration not stated) reads 0.287 µM.
